Common to all, as to experiment: inhibition of tumour cell growth, NCI panel, 48 h
Assay [1] relates to SF-268 CNS.
Assay [2] relates to KM12 colon.
The test system of assay [3] is U251 CNS.
Assay [4] has as its system UO-31 renal.
The test system of assay [5] is TK-10 renal.
The subject of assay [6] is K-562 leukemia.
For assay [7], the system named is HCT-116 colon.
Assay [8] has as its system HOP-62 NSCLC.

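Briefly, cells in 96-well plates were exposed to five compound concentrations for 48 h, and endpoints were estimated by linear interpolation. At the TGI there is no net growth.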

In the case of `COC(=O)CCC(NC(=S)N/N=C/c1ccco1)C(=O)OC` (stereo unspecified), the TGI in assay [1], in assay [2], in assay [3], in assay [4], in assay [5] and in assay [6] was more than 100 µM in each case. The TGI in assay [7] and in assay [8] was more than 100 µM each time.
Regarding `Cc1[nH]c2ccccc2c1C1Cc2ccccc2N1C(=O)/C=C/C(=O)O` (stereo unspecified), the TGI in assay [1], in assay [2], in assay [3], in assay [4], in assay [5] and in assay [6] was more than 100 µM throughout. Moreover, the TGI in assay [7] and in assay [8] was more than 100 µM each time.
Take `COc1ccc(C(=O)C(c2ccc(OC)cc2)C2(O)C(=O)Nc3c2ccc(Cl)c3C)cc1` (stereo unspecified): the TGI in assay [1], in assay [2], in assay [3], in assay [4], in assay [5] and in assay [6] was more than 100 µM in each case. In addition, the TGI in assay [7] and in assay [8] was more than 100 µM throughout.
For the compound `N#CC(c1nc2ccccc2nc1Cl)S(=O)(=O)c1ccccc1` (stereo unspecified), the TGI in assay [1], in assay [2], in assay [3], in assay [4], in assay [5] and in assay [6] was more than 100 µM each time. In addition, the TGI in assay [7] and in assay [8] was more than 100 µM throughout.
As to `C1=C2/CC[C@H](Sc3ccccc3)[C@H]2C2(CCCCC/1)OCCO2`, the TGI is more than 100 µM in assay [1]; more than 100 µM in assay [2]; 63.1 µM in assay [3]; more than 100 µM in assay [4]; more than 100 µM in assay [5]; more than 100 µM in assay [6]. In addition, the TGI in assay [7] and in assay [8] was more than 100 µM in each case.
Turning to `Cc1ccccc1NC(=O)C(=O)CC(=O)c1c(C)n([O-])c2ccccc2[n+]1=O`, the TGI in assay [1], in assay [2], in assay [3], in assay [4], in assay [6] and in assay [7] was more than 100 µM in each case. The compound further registered a TGI in assay [8] of more than 100 µM.
`CCc1cccc(C)c1NC(=O)C(=O)Cc1nc2ccccc2s1`: the TGI in assay [1], in assay [2], in assay [3], in assay [4], in assay [5] and in assay [6] was more than 100 µM throughout. This compound showed a TGI in assay [7] of more than 100 µM.
In the case of `CCOC(=O)NC(=O)c1cn(CCCCCCOC(=O)NCCCCCCNC(=O)OCCCCCCn2cc(C(=O)NC(=O)OCC)c(=O)[nH]c2=O)c(=O)[nH]c1=O`, the TGI in assay [1], in assay [2], in assay [3], in assay [4], in assay [6] and in assay [7] was more than 100 µM each time. Further, the TGI in assay [8] was more than 100 µM.
Take `O=C(c1ccccc1)c1cccc(C(=O)c2ccccc2)c1`: the TGI in assay [1], in assay [2], in assay [3], in assay [4], in assay [5] and in assay [6] was more than 100 µM throughout. Besides, the TGI in assay [7] and in assay [8] was more than 100 µM in each case.
As to `Cc1ccc(N2C(=O)C3C=CC(n4[nH]c(=O)n(Cc5ccccc5)c4=O)CC3C2=O)cc1` (stereo unspecified), the TGI in assay [1], in assay [2], in assay [3], in assay [4], in assay [5] and in assay [6] was more than 100 µM each time. Further, the TGI in assay [7] and in assay [8] was more than 100 µM each time.
Take `CCOC(=O)C(=Cc1cccnc1C)C(=O)OCC`: the TGI in assay [1] turned out to be 31.3 µM; in assay [2], 12.9 µM; in assay [3], 18.6 µM; in assay [4] it was 17.6 µM; in assay [5] it was 25.5 µM; in assay [6], 17.3 µM. Also, the figures for the TGI in assay [7] and in assay [8] were 17.9 µM and 40.7 µM, respectively.
As for `COc1cc(C2C(Cl)C(=O)N2NC(=O)c2ccc(N)cc2)ccc1O` (stereo unspecified), the TGI was more than 100 µM in assay [2]; 32 µM in assay [3]; more than 100 µM in assay [4]; more than 100 µM in assay [5]; 76.2 µM in assay [6]; 47.9 µM in assay [7]. The same compound came in with a TGI in assay [8] of more than 100 µM.
On to `Cc1cccc(C(C)C)c1NC(=O)CC1C(=O)Nc2ccccc2S1(=O)=O` (stereo unspecified), for which the TGI was 29.5 µM in assay [1]; 73.9 µM in assay [2]; more than 51.4 µM in assay [3]; 84.4 µM in assay [4]; 70.1 µM in assay [5]; 10.3 µM in assay [6]. The results for the TGI in assay [7] and in assay [8] were more than 46.9 µM and more than 100 µM, respectively.
For `O=c1c2ccccc2nc(-c2ccccc2)n1NC1OC(CO)C(O)C(O)C1O` (stereo unspecified), the TGI in assay [1], in assay [2], in assay [3], in assay [4], in assay [5] and in assay [6] was more than 100 µM each time. Besides, the TGI in assay [7] and in assay [8] was more than 100 µM in each case.
For `COc1ccc(OC)c2c1C(=O)C1CC1(Br)C2=O` (stereo unspecified), the TGI in assay [1], in assay [2], in assay [3], in assay [4], in assay [5] and in assay [6] was more than 100 µM each time. The TGI in assay [7] and in assay [8] was more than 100 µM in each case.
As to `COc1ccc(/C=N/N=C(\N)NO)c(OC)c1`, the TGI in assay [1], in assay [2], in assay [3], in assay [4], in assay [6] and in assay [7] was more than 100 µM in each case. Moreover, the TGI in assay [8] stood at 84.3 µM.
For `Cc1ccc(Nc2nc(C)c(C(/C=C/c3ccc(/C=C/C(=N/NC(=O)C[n+]4ccccc4)c4sc(Nc5ccc(C)cc5[N+](=O)[O-])nc4C)cc3)=N\NC(=O)C[n+]3ccccc3)s2)c([N+](=O)[O-])c1`, the TGI in assay [1], in assay [2], in assay [3], in assay [4], in assay [5] and in assay [6] was more than 100 µM each time. For the same compound, the TGI in assay [7] and in assay [8] was more than 100 µM in each case.

The record behind these values is PubChem BioAssay (NCI).
